# Data as given in patent publication US11491148B2, “Amide derivatives useful in the treatment of HBV infection or HBV-induced diseases” (Janssen Sciences Ireland Unlimited Company, priority 2019, dated 2022).
# Where a name gives a salt, the structure may show the parent alone. Read-outs that look alike come from different tables or passages of the source.
# Assays:
# [1] = Cytotoxicity, ATPlite cell viability (TOX-HepG2.117); type: cell-based, human; conditions: human; HepG2.117 cells, incubated for 3 days, ATPlite, mean value
# Protocol: Cytotoxicity of the compounds was tested using HepG2 or HepG2.117 cells, incubated for 3 days in the presence of compounds. The viability of the cells was assessed using the Perkin Elmer ATPlite Luminescence Assay System.”
# [2] = tested on: HBV; test: Anti-HBV activity, intracellular HBV DNA by real-time PCR (HBV-AVE-HepG2.117); type: cell-based, Hepatitis B virus; conditions: read-out: HBV-AVE-HepG2.117 EC50 (μM; mean value)
# Protocol: The anti HBV activity was measured using the HepG2.117 cell line, a stable, inducible HBV producing cell line, which replicates HBV in the absence of doxicycline (Tet-off system). The HepG2 cell line is available from ATCC®) under number HB-8065. Transfection of the HepG2 cell line can be as described in Sun and Nassal 2006 Journal of Hepatology 45 (2006) 636-645 “Stable HepG2- and Huh7-based human hepatoma cell lines for efficient regulated expression of infectious hepatitis B virus”.
# For the antiviral assay, HBV replication was induced, followed by a treatment with serially diluted compound in 96-well plates. After 3 days of treatment, the antiviral activity was determined by quantification of intracellular HBV DNA using real-time PCR and an HBV specific primer set and probe.
# [3] = Hepatitis B virus, HepG2.117, 72 h, HepG2.117 cell line, 3 days of treatment, intracellular HBV DNA, mean value
# [4] = Hepatitis B virus, HepG2.117, 72 h
SMILES,CC50 at 3 days [1] [µM],"EC50 [2, 3] [µM]","EC50 ([2]; HepG2.117 cell line, 3 days of treatment, intracellular HBV DNA, mean value, hydrochloride) [µM]","EC50 [2, 4] [µM]"
"C[C@H]1[C@@H](C(=O)Nc2cc(F)c(F)c(F)c2)CCN1C(=O)C(=O)N[C@@](C)(CC(F)F)c1c[nH]nn1 (single isomer, unassigned) [C33S*]",> 50,0.04,,
Cc1[nH]nnc1C1(NC(=O)C(=O)N2CC[C@H](C(=O)Nc3cc(F)c(F)c(F)c3)[C@@H]2C)CC(F)(F)C1 [C38],> 50,0.012,,
C[C@H]1[C@@H](C(=O)Nc2ccc(F)c(Cl)c2)CCN1C(=O)C(=O)NC1(c2c[nH]nn2)CC(F)(F)C1 [C20],> 50,0.012,,
"C[C@H]1[C@@H](C(=O)Nc2cc(F)c(F)c(F)c2)CCN1C(=O)C(=O)N[C@](C)(CC(F)F)c1c[nH]nn1 (single isomer, unassigned) [C33R*]",> 50,0.034,,
"N#Cc1cc(NC(=O)[C@H]2CCN(C(=O)C(=O)NC3(c4c[nH]nn4)CC(F)(F)C3)C2)ccc1F [C1•HCl, (3S)—N-(3-Cyano-4-fluorophenyl)-1-[{[3,3-difluoro-1-(1H-1,2,3-triazol-4-yl)cyclobutyl]amino}(oxo)acetyl]pyrrolidine-3-carboxamide hydrochloride]",,,0.27,
Cc1c(F)ccc(NC(=O)[C@H]2CCN(C(=O)C(=O)NC3(c4c[nH]nn4)CC(F)(F)C3)[C@H]2C)c1F [C23],> 50,0.016,,
C[C@H]1[C@@H](C(=O)Nc2ccc(Cl)c(Cl)c2)CCN1C(=O)C(=O)NC1(c2c[nH]nn2)CC(F)(F)C1 [C15],35.2,0.014,,
C[C@H]1[C@@H](C(=O)Nc2ccc(F)c(F)c2F)CCN1C(=O)C(=O)NC1(c2c[nH]nn2)CC(F)(F)C1 [C22],> 50,0.026,,
C[C@H]1C[C@H](C(=O)Nc2cc(F)c(F)c(F)c2)[C@H](C)N1C(=O)C(=O)NC(CC(F)(F)F)c1c[nH]nn1 (stereo partly drawn) [C36],> 50,< 0.01,,
O=C(NC1(c2c[nH]nn2)CC(F)(F)C1)C(=O)N1CC[C@H](C(=O)Nc2ccnc(Cl)c2)C1 [C11],> 50,1.5,,
"C[C@H]1[C@@H](C(=O)Nc2ccc(F)c(C(F)(F)F)c2)CCN1C(=O)C(=O)N[C@H](CC(F)(F)F)c1c[nH]nn1 (single isomer, unassigned) [C30R*]",> 50,0.037,,
Cc1cc(NC(=O)[C@H]2CCN(C(=O)C(=O)NC3(c4c[nH]nn4)CC(F)(F)C3)[C@H]2C)cc(F)c1F [C27],> 50,0.012,,
Cc1cc(NC(=O)[C@H]2CCN(C(=O)C(=O)NC3(c4c[nH]nn4)CC(F)(F)C3)[C@H]2C)cc(Cl)c1F [C24],> 50,0.012,,
C[C@H]1CN(C(=O)C(=O)NC2(c3c[nH]nn3)CC(F)(F)C2)C[C@H]1C(=O)Nc1cc(F)c(F)c(F)c1 [C10],> 50,0.578,,
"C[C@H]1[C@@H](C(=O)Nc2cc(F)c(F)c(Cl)c2)CCN1C(=O)C(=O)N[C@@H](CC(F)(F)F)c1c[nH]nn1 (single isomer, unassigned) [C32S*]",> 50,0.031,,
C[C@@H]1CN(C(=O)C(=O)NC2(c3c[nH]nn3)CC(F)(F)C2)C[C@H]1C(=O)Nc1cc(F)c(F)c(F)c1 [C9],> 50,0.204,,
O=C(NC1(c2c[nH]nn2)CC(F)(F)C1)C(=O)N1CC[C@H](C(=O)Nc2ccc(Cl)c(Cl)c2)C1 [C7],> 50,0.1,,
"C[C@H]1[C@@H](C(=O)Nc2ccc(F)c(C(F)(F)F)c2)CCN1C(=O)C(=O)N[C@@H](CC(F)(F)F)c1c[nH]nn1 (single isomer, unassigned) [C30S*]",> 50,0.06,,
"C[C@H]1[C@@H](C(=O)Nc2ccc(F)c(C#N)c2)CCN1C(=O)C(=O)NC1(c2c[nH]nn2)CC(F)(F)C1 [C6, (2S,3S)—N-(3-Cyano-4-fluorophenyl)-1-[{[3,3-difluoro-1-(1H-1,2,3-triazol-4-yl)cyclobutyl]amino}(oxo)acetyl]-2-methylpyrrolidine-3-carboxamide]",> 50,,,0.044
C[C@H]1[C@@H](C(=O)Nc2cc(F)c(F)c(F)c2)CCN1C(=O)C(=O)N[C@]1(c2c[nH]nn2)C[C@H](C(F)F)C1 [C39c],> 50,0.062,,
C[C@H]1C[C@H](C(=O)Nc2cc(F)c(F)c(F)c2)CN1C(=O)C(=O)NC1(c2c[nH]nn2)CC(F)(F)C1 [C19],> 50,0.019,,

SMILES,CC50 at 3 days [1] [µM],"EC50 [2, 3] [µM]","EC50 ([2]; HepG2.117 cell line, 3 days of treatment, intracellular HBV DNA, mean value, hydrochloride) [µM]","EC50 [2, 4] [µM]"
O=C(NC1(c2c[nH]nn2)CC(F)(F)C1)C(=O)N1CC[C@H](C(=O)Nc2cc(F)c(F)c(Cl)c2)C1 [C8],> 50,0.045,,
C[C@H]1[C@@H](C(=O)Nc2cc(F)c(F)c(F)c2)CCN1C(=O)C(=O)N[C@]1(c2c[nH]nn2)C[C@@H](C(F)F)C1 [C39t],> 50,0.033,,
"N#Cc1cc(NC(=O)[C@H]2CCN(C(=O)C(=O)NC3(c4c[nH]nn4)CC(F)(F)C3)C2)ccc1F [C1, (3S)—N-(3-Cyano-4-fluorophenyl)-1-[{[3,3-difluoro-1-(1H-1,2,3-triazol-4-yl)cyclobutyl]amino}(oxo)acetyl]pyrrolidine-3-carboxamide]",> 50,0.15,,
C[C@H]1[C@@H](C(=O)Nc2cc(F)c(F)c(Cl)c2)CCN1C(=O)C(=O)NC1(c2c[nH]nn2)CC(F)(F)C1 [C16],> 50,0.006,,
"C[C@H]1[C@@H](C(=O)Nc2ccc(F)c(C(F)F)c2F)CCN1C(=O)C(=O)N[C@@H](CC(F)(F)F)c1c[nH]nn1 (single isomer, unassigned) [C31S*]",> 50,0.056,,
"C[C@H]1[C@@H](C(=O)Nc2cc(F)c(F)c(F)c2)CCN1C(=O)C(=O)NC1(c2c[nH]nn2)CC(F)(F)C1 [C3, (2S,3S)-1-[{[3,3-Difluoro-1-(1H-1,2,3-triazol-4-yl)cyclobutyl]amino}(oxo)acetyl]-2-methyl-N-(3,4,5-trifluorophenyl)pyrrolidine-3-carboxamide]",> 50,,,0.011
"C[C@H]1[C@@H](C(=O)Nc2ccc(F)c(C(F)F)c2F)CCN1C(=O)C(=O)N[C@H](CC(F)(F)F)c1c[nH]nn1 (single isomer, unassigned) [C31R*]",> 50,0.021,,
"C[C@H]1[C@@H](C(=O)Nc2ccc(F)c(Cl)c2F)CCN1C(=O)C(=O)N[C@@H](CC(F)(F)F)c1c[nH]nn1 (single isomer, unassigned) [C37S*]",> 50,0.043,,
"C[C@H]1[C@@H](C(=O)Nc2ccc(Cl)c(Cl)c2)CCN1C(=O)C(=O)N[C@H](CC(F)(F)F)c1c[nH]nn1 (single isomer, unassigned) [C25R*]",25.7,0.017,,
"C[C@H]1[C@@H](C(=O)Nc2ccc(F)c(Cl)c2F)CCN1C(=O)C(=O)N[C@H](CC(F)(F)F)c1c[nH]nn1 (single isomer, unassigned) [C37R*]",> 50,0.014,,
"C[C@H]1[C@@H](C(=O)Nc2ccc(F)c(Cl)c2)CCN1C(=O)C(=O)N[C@@H](CC(F)(F)F)c1c[nH]nn1 (single isomer, unassigned) [C34S*]",> 50,0.035,,
"C[C@H]1[C@@H](C(=O)Nc2ccc(F)c(C#N)c2)CCN1C(=O)C(=O)N[C@@H](CC(F)(F)F)c1c[nH]nn1 (single isomer, unassigned) [C28S*]",> 50,0.07,,
C[C@H]1[C@@H](C(=O)Nc2cc(F)c(F)c(F)c2)CCN1C(=O)C(=O)NC1(c2nn[nH]c2Cl)CC(F)(F)C1 [C26],> 50,0.176,,
"Cc1cc(NC(=O)[C@H]2CCN(C(=O)C(=O)NC3(c4c[nH]nn4)CC(F)(F)C3)C2)ccc1F [C2, (3S)-1-[{[3,3-Difluoro-1-(1H-1,2,3-triazol-4-yl)cyclobutyl]amino}(oxo)acetyl]-N-(4-fluoro-3-methylphenyl)pyrrolidine-3-carboxamide]",> 50,0.079,,
C[C@H]1[C@@H](C(=O)Nc2ccc(F)c(C(F)F)c2F)CCN1C(=O)C(=O)NC1(c2c[nH]nn2)CC(F)(F)C1 [C14],> 50,0.019,,
"C[C@H]1[C@@H](C(=O)Nc2ccc(F)c(C#N)c2)CCN1C(=O)C(=O)N[C@H](CC(F)(F)F)c1c[nH]nn1 (single isomer, unassigned) [C28R*]",> 50,0.032,,
"C[C@H]1[C@@H](C(=O)Nc2cc(F)c(F)c(Cl)c2)CCN1C(=O)C(=O)N[C@H](CC(F)(F)F)c1c[nH]nn1 (single isomer, unassigned) [C32R*]",> 50,0.007,,
"C[C@H]1[C@@H](C(=O)Nc2cc(F)c(F)c(Br)c2)CCN1C(=O)C(=O)NC1(c2c[nH]nn2)CC(F)(F)C1 [C21, (2S,3S)—N-(3-bromo-4,5-difluorophenyl)-1-(2-((3,3-difluoro-1-(1H-1,2,3-triazol-4-yl)cyclobutyl)amino)-2-oxoacetyl)-2-methylpyrrolidine-3-carboxamide]",> 50,,,0.012
C[C@H]1C[C@H](C(=O)Nc2ccc(F)c(C#N)c2)CN1C(=O)C(=O)NC1(c2c[nH]nn2)CC(F)(F)C1 [C13],> 50,0.061,,
C[C@H]1C[C@H](C(=O)Nc2cc(F)c(F)c(F)c2)[C@H](C)N1C(=O)C(=O)NC1(c2c[nH]nn2)CC(F)(F)C1 [C35],> 50,0.011,,
